According to patent US4505932A, “Method of producing α2 -adrenergic receptor agonist activity” (Abbott Laboratories, priority 1984, dated 1985):
Structures can show the parent of a compound that is named as a salt.

Legend:
α2 -adrenergic receptors = type: binding, rat; conditions: for Ki: rat brain cortex, [3H] rauwolscine, read-out: KIα2 (dissociation constant); for KIα1/KIα2: selectivity ratio, rat liver α1 vs rat brain cortex α2
α-adrenergic receptor = test: isolated rabbit aorta contraction, α-adrenergic receptor agonist activity; type: cell-based; conditions: isolated rabbit aorta strip
Method: Female rabbits, weighing 2 to 5 kg., are sacrificed by cervical dislocation. The thoracic cavity is immediately opened and the descending aorta is removed and placed in a petrie dish containing an aqueous buffer solution (Krebs buffer) of 119 mM NaCl, 25 mM […], 4.7 mM KCl, 1.5 mM MgSO4, 1.2 mM KH2 PO4, 2.5 mM CaCl2, 11 mM glucose, 0.03 mM EDTA and 0.005 mM sodium ascorbate, adjusted to a pH of 7.4. The buffer solution is continuously aerated with a mixture of 95% O2 and 5% CO2 gases. The aorta is placed on cylindrical sticks and cleaned of excess fat and connective tissue, then cut into 2 tissue segments approximately 20 mm in length. Each segment of aorta is then spiraled in strips 3.5 mm wide by turning the stick as a scapel is applied, while leaving a section of 2-3 mm at each end of the aorta section intact. The spiraled tissue is mounted in an aerated (as above) tissue bath of 10 ml. of Kreb's buffer and is attached to a Grass force transducer with an initial applied tension of 2 grams. The tissue is allowed to equilibrate in the tissue bath at a temperature of 37°±0.5° C. until the tension on the force transducer stabilizes at 2 grams.
The tissue is washed with Krebs buffer until it relaxes to baseline tension.

α1 -adrenergic receptors = biological target: T1, α1 -adrenergic receptors (Rattus norvegicus, UniProt P15823); test: radioligand binding, [3H] prazosin displacement in rat liver; conditions: read-out: KIα1 (dissociation constant)
T1 construct: from tissue; host or cells: rat liver
T1 sequence (P15823 1-515): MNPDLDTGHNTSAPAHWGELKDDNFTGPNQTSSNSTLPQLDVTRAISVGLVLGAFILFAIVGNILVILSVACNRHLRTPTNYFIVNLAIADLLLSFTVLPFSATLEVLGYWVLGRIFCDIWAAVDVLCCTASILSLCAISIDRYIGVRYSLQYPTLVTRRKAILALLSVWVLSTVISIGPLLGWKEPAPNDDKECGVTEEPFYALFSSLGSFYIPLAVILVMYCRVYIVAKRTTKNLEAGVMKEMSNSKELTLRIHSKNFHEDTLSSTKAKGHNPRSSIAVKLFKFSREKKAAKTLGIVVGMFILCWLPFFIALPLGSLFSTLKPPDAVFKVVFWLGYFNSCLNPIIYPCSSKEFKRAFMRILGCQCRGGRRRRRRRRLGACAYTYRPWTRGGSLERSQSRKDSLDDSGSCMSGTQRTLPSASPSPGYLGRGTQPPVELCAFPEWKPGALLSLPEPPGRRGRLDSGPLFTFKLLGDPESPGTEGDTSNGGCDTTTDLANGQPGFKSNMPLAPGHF

[1] = system: spontaneously hypertensive rat; test: arterial blood pressure and heart rate in the spontaneously hypertensive rat (tail cuff); type: in vivo
Method: Two groups of Okamoto rats, which develop hypertension spontaneously when reaching young adulthood, are deprived of food for a period of 16 hours and are placed in semirestraining wire mesh cylinders maintained at a constant temperature of 36° C. An occluding cuff, operatively connected to a programmed sphygmomanometer, is placed over the tail of each rat of the group and retained near the tail base. […] A photocell is placed distal to the cuff to detect pulses resulting from the forward motion of blood flow with each heartbeat of the rat. As the pressure in the cuff increases, measurable pulses disappear at the point where the cuff pressure equals the arterial blood pressure. Measurable pluses reappear during deflation at approximately the same pressure, and arterial blood pressure is thereby established by cuff pressure at the point of pulse appearance. The heart rate is determined from the arterial pulse wave. Doses of 30 or 100 mg./kg. of the preferred compound of Example 6 were administered orally to each rat of the test groups and five interference-free signals were recorded on a Model 7 Grass polygraph for each rat at various measurement periods following administration.

Row | Compound | Ki (α2 -adrenergic receptors) [nM] | agonist character (intrinsic activity vs norepinephrine; >75% = full agonist) (α-adrenergic receptor) | EC50 (α-adrenergic receptor; contraction, read-out: ED50 (concentration producing half maximum response) in aorta strip) [nM] | Ki (α1 -adrenergic receptors) [nM] | KIα1/KIα2 (α2 -adrenergic receptors) | arterial blood pressure ([1]; 30 or 100 mg./kg. orally, Okamoto rats) | heart rate ([1]; spontaneously hypertensive rat, oral)
1 | CNC[C@H](O)c1ccc(O)c(O)c1 [Epinephrine, epinephrine, reference compound] | 53 | – | – | – | – | – | –
2 | CN(C)CC1CCc2c1ccc(O)c2O (stereo not drawn) [Example 6, 1-N,N-Dimethylaminomethyl-4,5-dihydroxy indane hydrobromide] | 25 | full agonist | 1600 | 6900 | 276 | decrease the arterial blood pressure | decrease
3 | CNCC1CCc2c1ccc(O)c2O (stereo not drawn) [Example 10, 1-N-Methylaminomethyl-4,5-dihydroxy indane hydrobromide] | 6 | – | – | 1690 | 282 | – | –
4 | NCC1CCc2c1ccc(O)c2O (stereo not drawn) [B] | 15 | – | – | 8620 | 575 | – | –
5 | Clc1cccc(Cl)c1N=C1NCCN1 [Clonidine, clonidine, reference compound] | 34 | – | – | – | – | – | –
